Measurements: US20230134986A1, “GLUCOSE TRIPTOLIDE CONJUGATES AND USES THEREOF” (The Johns Hopkins University, priority 2020, published 2023)

Tests used:
Assay type in all cases: cell-based, human
PC3 cells = experiment: PC3 proliferation under hypoxia or normoxia ([3H]-thymidine incorporation); conditions: for IC50: Homo sapiens, PC-3, 48 h, 48 h post treatment
Method: Proliferation and viability assays. [^3H]-thymidine incorporation. HEK293T cells (10,000 cells/well) were seeded into 96-well plates then cultured in DMEM plus 10% FBS and 1% penicillin/streptomycin at 37° C. with 5% CO2 overnight. Drugs were added at indicated concentrations and incubation was continued for an additional 24 h. For hypoxia, PC3 (5,000 cells/well) were exposed to 1% O2 (Airgas) in a humidified hypoxia chamber (Billups-Rothenberg) in 37° C. for 48 h prior to drug exposure for 48 h. Treated cells were then pulsed using an aliquot of 1 μCi of [^3H]-thymidine (Perkin Elmer) per well for an additional 6 h. Radiolabelled cells were harvested onto a printed Filtermat A glass fiber filter (Perkin Elmer) using a Tomtec Harvester 96 Mach III M. Betaplate Scint (Perkin Elmer) scintillation fluid was added to radiolabelled filters followed by scintillation counting on Microbeta2 LumiJET Microplate Counter (Perkin Elmer).

HeLa cells = experiment: Apoptosis signaling in HeLa cells (nuclear fragmentation, cytochrome c, caspase 3, PARP1); design: percentage of cells with nuclear fragmentation / cytochrome c release from mitochondria to cytosol: unit of the concentration uncertain; conditions: for percentage of cells with nuclear fragmentation: control 6%
Method: Western blot analysis. Whole cell lysates were prepared by adding lysis buffer [4% SDS, 20% glycerol, 10% 2-mercaptoethanol, 0.004% bromophenol blue, 0.125 M Tris-HCl (pH 6.8)] to the cell pellets for 30 minutes in ice followed by centrifugation at 12,000×g for 10 minutes then boiling for 5 minutes. For isolation of cytosolic and mitochondrial fractions of cytochrome C, cell pellets were resuspended in CLAMI buffer (250 mM sucrose, 70 mM KCl, […] digitonin in 1×PBS, protease inhibitor cocktail (1 tablet/10 ml CLAMI buffer)) then incubated on ice for 5 minutes. After centrifugation at 12,000×g for 5 minutes at 4° C., supernatant (cytoplasmic fraction) was collected and the pellet resuspended in lysis buffer as described above. Proteins were then separated by SDS-PAGE and transferred to nitrocellulose membranes (Bio-Rad). After blocking at room temperature for 1 h, membranes were incubated at 4′C overnight with the primary antibodies including anti-Rpb1 (Santa Cruz Biotechnology), anti-XPB (Biotechne), anti-Actin (Developmental Studies Hybridoma Bank), anti-GAPDH (Santa Cruz Biotechnology), anti-cytochrome C (Santa Cruz Biotechnology), anti-PARP1 (Santa Cruz Biotechnology), anti-cleaved caspase 3 (Cell Signaling Technology), anti-VDAC (ProteinTech), anti-HIF-1[…] (BD sciences), and anti-GLUT1 (Santa Cruz Biotechnology) antibodies followed by incubation with horseradish peroxidase-conjugated anti-mouse or anti-rabbit IgG (GE Healthcare) at room temperature for 2 hours. Antibody-protein complexes were detected using enhanced chemiluminescence (ECL) immunoblotting detection reagent (EMD Millipore).
Immunocytochemistry and cytochemistry. HeLa or PC3 cells (2×10^5) were seeded on a MatTek glass bottom culture dish (Fisher Scientific, Pittsburgh, Pa., USA) and allowed to adhere for 24 h. Cells were then treated with either DMSO or drugs for 6 or 24 h then fixed with 4% paraformaldehyde, permeabilized using 1×PBS with 0.5% triton X 100 then probed for endogenous RNA Polymerase II catalytic subunit Rpb1 or HIF-1α using anti-RNAPII (Santa Cruz Biotechnology) and anti-HIF-1α (BD sciences) antibodies, respectively. Detection was then done using anti-mouse Alexa Fluor 488 (Invitrogen). For nuclear staining, fixed and permeabilized cells were incubated in DAPI (ThermoFisher) or Hoechst 33258 (Sigma) for 30 minutes prior to imaging. Glucose uptake was monitored by incubating cells in 200 μM 2-NBDG (ThermoFisher) for 6 hours prior to fixation. Fluorescence was observed under the Nikon Eclipse TE200 Inverted microscope (Nikon Instruments Inc., Melville, N.Y., USA). ImageJ software (NIH, Bethesda, Md., USA; http://imagej.nih.gov/ij/index.html) was used to measure intracellular protein levels in immuno-cytochemistry samples (Li et al. (2015) Toxicological Sciences: an Official Journal of the Society of Toxicology 143:196-208). Rpb1 levels were measured using the MEASURE feature of ImageJ where all the background signals were subtracted from the intergrated density of nuclear Rpb1.

MDA MB231 cells = experiment: MDA MB231 proliferation under hypoxia ([3H]-thymidine incorporation); conditions: MDA MB231, 1% O2, 48 h post treatment
[1] = HeLa, 3 (unit uncertain) compound 1

CC(C)[C@]12O[C@H]1[C@@H]1O[C@]13[C@]1(O[C@H]1C[C@H]1C4=C(CC[C@@]13C)C(=O)OC4)[C@@H]2OC(=O)CCCO[C@@H]1OC(CO)[C@@H](O)C(O)C1O (stereo in doubt) [Compound 1]
IC50 (PC3 cells; PC3, hypoxic conditions (1% O2)): 81 nM | IC50 (PC3 cells; PC3, normoxic conditions (20% O2)): 427 nM | fold enhancement of anti-proliferative effect during hypoxia (PC3 cells; PC3, hypoxia versus normoxia): five-fold | percentage of cells with nuclear fragmentation (HeLa cells; HeLa, 1 (unit uncertain) compound 1): 23% | cytochrome c release from mitochondria to cytosol (HeLa cells; [1]): triggers the release of cytochrome c | percentage of cells with nuclear fragmentation (HeLa cells; [1]): 53% | caspase-3 activation (HeLa cells; HeLa, western blot): activated caspase-3 dose dependently | PARP1 cleavage (HeLa cells; increasing concentrations of compound 1, western blot): Pronounced PARP1 cleavage | effect of hypoxia on anti-proliferative effect (MDA MB231 cells): enhances the anti-proliferative effect
